Measurements as given in ChEMBL document CHEMBL1152981 (J Med Chem, 2009).
The source made the active and inactive calls. The calls are words filed in the database; no cut-off is given here.

What was measured:
[1] = molecular target: Glutamate NMDA receptor; test: Displacement of [3H]glycine from strychnine-insensitive glycine recognition site of NMDA receptor in rat brain cortex membrane; assay type: cell membranes
[2] = molecular target: Glutamate NMDA receptor; test: Displacement of [3H]CGP39653 from glutamate recognition site of NMDA receptor in rat brain cortex membrane in presence of glycine antagonist 5,7-dichlorokynurenic acid; assay type: cell membranes
[3] = molecular target: T1, Glutamate NMDA receptor (Rattus norvegicus) (UniProt P35439+Q00959+Q00960+Q00961+Q62645+Q8VHN2+Q9R1M7); test: Displacement of [3H]MK-801 from ion channel site of NMDA receptor in rat brain cortex membrane; assay type: cell membranes
[4] = molecular target: T1, Glutamate NMDA receptor (Rattus norvegicus); test: Displacement of [3H]spermidine from polyamine site of NMDA receptor in rat brain cortex membrane; assay type: cell membranes
[5] = Partial agonist activity at glycine site of NMDA receptor in rat brain cortex membrane assessed as potentiation of [3H]Mk-801 binding by liquid scintillation counting; assay type: cell membranes
[6] = molecular target: T1, Glutamate NMDA receptor (Rattus norvegicus); test: Displacement of [3H]glycine from strychnine-insensitive glycine recognition site of NMDA receptor in rat brain cortex membrane at 3 uM; assay type: cell membranes
[7] = molecular target: T1, Glutamate NMDA receptor (Rattus norvegicus); test: Antagonist activity at glycine site of NMDA receptor in rat brain cortex membrane assessed as inhibition of [3H]Mk-801 binding by liquid scintillation counting in presence of antagonist 5,7-dichlorokynurenic acid

pKi [1] | pKi [2] | further results | Structure (SMILES)
4.9 | – | – | NC(CNC(=O)c1cc2ccc(Cl)cc2[nH]1)C(=O)O (racemic)
4.1 | – | – | COC(=O)NCC(N)C(=O)O (racemic)
7.3 | 5.6 | – | CC(C)c1ccccc1-c1cccc2[nH]c(C(=O)NCC(N)C(=O)O)cc12 (racemic)
4.9 | – | Activity [3]: inactive; Activity [4]: inactive; pEC50 [5]: 5 | NC(CNC(=O)c1ccc[nH]1)C(=O)O (racemic)
6.8 | 4.7 | – | NC(CNC(=O)c1cc2c(Br)cccc2[nH]1)C(=O)O (racemic)
– | – | Activity [6]: inactive | COC[C@@H](N)C(=O)O
< 4 | – | – | CCNC(=O)NCC(N)C(=O)O (racemic)
5.6 | 4.7 | – | NC(CNC(=O)c1cc2c(-c3ccccc3)cccc2[nH]1)C(=O)O (racemic)
6 | 4.1 | – | NC(CNC(=O)c1cc2c(Cl)cccc2[nH]1)C(=O)O (racemic)
6.5 | 4.2 | pA2 [5]: 6 | CCCc1c(C(=O)NCC(N)C(=O)O)[nH]c2cccc(Br)c12 (racemic)
< 3 | – | – | NC1(C(=O)O)CCCCC1
4.9 | – | Activity [3]: inactive; Activity [4]: inactive; pEC50 [5]: 5.1 | NC(CNC(=O)c1ccco1)C(=O)O (racemic)
7.6 | 5.4 | Activity [3]: inactive; Activity [4]: inactive; pEC50 [5]: 7.7 | CCc1ccccc1-c1cccc2[nH]c(C(=O)NC[C@@H](N)C(=O)O)cc12
4.8 | – | – | NC1(C(=O)O)CCC1 [1-AMINOCYCLOBUTANE CARBOXYLIC ACID]
2.7 | – | – | NC1(C(=O)O)CCCC1 [CYCLOLEUCINE]
6.9 | < 4.5 | – | CCc1ccccc1-c1ccc(Cl)c2[nH]c(C(=O)NCC(N)C(=O)O)cc12 (racemic)
< 4 | – | – | CC(N)(CO)C(=O)O (stereo not given)
5.8 | 4.1 | pEC50 [5]: 6.5 | CN(C)c1ccccc1-c1cccc2[nH]c(C(=O)NCC(N)C(=O)O)cc12 (racemic)
4.7 | < 4.5 | Activity [3]: inactive; Activity [4]: inactive; pA2 [5]: 5.1 | NC(CNC(=O)c1cc2c(-c3ccc(Cl)cc3Cl)cccc2s1)C(=O)O (racemic)
6.8 | – | – | NC1(C(=O)O)CC1 [1-Aminocyclopropane carboxylic acid]
3.9 | – | – | CCc1ccccc1-c1cccc2c1cc(C(=O)NCC(N)C(=O)O)n2C (racemic)
5.9 | – | – | CCCCCC/C=C/[C@H](N)C(=O)O

pKi [1] | pKi [2] | further results | Structure (SMILES)
5.7 | 4.5 | – | CCc1ccccc1-c1cccc2cc(C(=O)NCC(N)C(=O)O)ccc12 (racemic)
6.3 | 3.8 | Activity [3]: inactive; Activity [4]: inactive; pA2 [5]: 5.7 | CCCc1c(C(=O)NCC(N)C(=O)O)[nH]c2ccccc12 (racemic)
4.4 | – | – | NC(CNC(=O)c1ccccn1)C(=O)O (racemic)
5.5 | – | – | NC(CNC(=O)c1cc2cccc(Cl)c2[nH]1)C(=O)O (racemic)
5 | – | – | Cn1c(C(=O)NCC(N)C(=O)O)cc2c(Br)cccc21 (racemic)
< 4 | – | – | N[C@@H](CNC(=O)c1cc2ccccc2[nH]1)C(=O)O
6.2 | – | – | C[C@@H](N)C(=O)O [D-ALANINE]
6.6 | 4.3 | – | NC(CNC(=O)c1ccc2c(Br)cccc2c1)C(=O)O (racemic)
5.2 | < 4 | – | NC(CNC(=O)c1cc2ccccc2o1)C(=O)O (racemic)
5.9 | 4.1 | – | COc1cccc2[nH]c(C(=O)NCC(N)C(=O)O)cc12 (racemic)
4.3 | < 4 | – | NC(CNC(=O)Cc1c[nH]c2cccc(Br)c12)C(=O)O (racemic)
6.8 | 5.3 | – | CCCc1c(C(=O)NCC(N)C(=O)O)[nH]c2cccc(-c3ccccc3CC)c12 (racemic)
5.4 | – | – | CCC/C=C/[C@H](N)C(=O)O
5.5 | < 4 | – | NC(CNC(=O)C1=Cc2ccccc2C1)C(=O)O (racemic)
6.5 | < 4 | – | NC(CNC(=O)c1cc2c(Cl)cccc2s1)C(=O)O (racemic)
4.7 | – | – | NC(CNC(=O)c1cc2cc(Cl)ccc2[nH]1)C(=O)O (racemic)
6.1 | 4.9 | – | NC(CNC(=O)c1[nH]c2cccc(Br)c2c1[N+](=O)[O-])C(=O)O (racemic)
5.6 | 4.3 | – | COc1ccccc1-c1cccc2[nH]c(C(=O)NCC(N)C(=O)O)cc12 (racemic)
5.6 | < 4 | – | NC(CNC(=O)c1ccc2ccccc2n1)C(=O)O (racemic)
5.5 | – | – | Cc1c(C(=O)NCC(N)C(=O)O)[nH]c2ccccc12 (racemic)
– | – | Activity [6]: inactive | CC(O)[C@@H](N)C(=O)O (stereo not given in full)
– | – | Activity [7]: Active | C[C@@H]1CN(O)C(=O)[C@@H]1N (relative stereo)

pKi [1] | pKi [2] | further results | Structure (SMILES)
6.5 | 5.2 | pEC50 [5]: 6.9 | Cc1ccccc1-c1cccc2[nH]c(C(=O)NCC(N)C(=O)O)cc12 (racemic)
7.5 | 4.9 | – | CCc1ccccc1-c1cccc2[nH]c(C(=O)NCC(N)C(=O)O)cc12 (racemic)
5.9 | < 4 | Activity [3]: inactive; Activity [4]: inactive; pA2 [5]: 5.5 | N#Cc1cccc2sc(C(=O)NCC(N)C(=O)O)cc12 (racemic)
5.4 | – | Activity [3]: inactive; Activity [4]: inactive | NC(CNC(=O)c1c[nH]c2ccccc12)C(=O)O (racemic)
< 4 | – | – | CC[C@@H](N)C(=O)O
4.9 | – | – | Cn1c(C(=O)NCC(N)C(=O)O)cc2ccccc21 (racemic)
5.9 | < 4 | Activity [3]: inactive; Activity [4]: inactive | NC(CNC(=O)c1ccc2ccccc2c1)C(=O)O (racemic)
6.4 | < 4 | Activity [3]: inactive; Activity [4]: inactive | NC(CNC(=O)c1cc2c(Br)cccc2s1)C(=O)O (racemic)
5.9 | < 4 | – | NC(CNC(=O)c1cccc2ccccc12)C(=O)O (racemic)
6.2 | 3.9 | Activity [3]: inactive; Activity [4]: inactive | CCc1ccccc1-c1cccc2sc(C(=O)NCC(N)C(=O)O)cc12 (racemic)
6.6 | – | – | N[C@@H](/C=C/CCO)C(=O)O
7 | 4.6 | Activity [3]: inactive; Activity [4]: inactive; pEC50 [5]: 6.6 | N[C@H](CNC(=O)c1cc2c(Br)cccc2[nH]1)C(=O)O
7.3 | 5.4 | pEC50 [5]: 7.6 | CCCc1ccccc1-c1cccc2[nH]c(C(=O)NCC(N)C(=O)O)cc12 (racemic)
< 4 | – | – | NC(C(=O)O)C1CC1 (stereo not given)
6 | < 5.5 | pEC50 [5]: 6.5 | NC(CNC(=O)c1cc2c(-c3ccccc3Cc3ccccc3)cccc2[nH]1)C(=O)O (racemic)
< 4 | – | – | C=CC[C@@H](N)C(=O)O
5.3 | 3.8 | Activity [3]: inactive; Activity [4]: inactive; pEC50 [5]: 5.3 | N[C@H](CNC(=O)c1cc2ccccc2[nH]1)C(=O)O
< 4 | – | – | NC(CNC(=O)C1Cc2ccccc2C1)C(=O)O (racemic)
6.8 | 4 | pA2 [5]: 6.2 | NC(CNC(=O)c1cc2c(Cl)ccc(Cl)c2[nH]1)C(=O)O (racemic)
< 4 | – | – | NC(CNC(=O)Cc1c[nH]c2ccccc12)C(=O)O (racemic)
